Laboratory results: patent US20070293666A1, “Optical Filter and Its Applications, and Porphyrin Compound Used in Optical Filter” (Mitsui Chemicals, Inc., priority 2004, published 2007)

Assays:
Assay type in all cases: physicochemical
[1] = Absorption spectrum in chloroform (maximum absorption wavelength, gram absorption coefficient, 550/525 nm coefficient ratio); settings: for εg (gram absorption coefficient) / λmax: chloroform solution
Experimental: (§1) Compounds represented by the compound Nos. 1-1, 1-2, 1-3, 1-4 and 1-7 (Table 1-1) were synthesized in the same manner as in Examples 1-1 and 1-2. With respect to compounds synthesized in Example 1-2 and Synthesis Example 1-1 along with these compounds, the maximum absorption wavelength (λmax), the gram absorption coefficient (εg) and solubility were measured.
(§2) λmax and εg are values in the chloroform solution, while the solubility is weight % based on acetone.
With respect to the compounds represented by the compound Nos. 1-2, 1-3, 1-6 and 1-7 synthesized in Examples 1-2 and 1-3 (corresponding to compounds (3-B), (3-C), (3-E) and (3-F) respectively) along with the obtained compound (3-A), the maximum absorption wavelength and the ratio of the absorption coefficient at a wavelength of 550 nm to the absorption coefficient at a wavelength of 525 nm, which were measured in a chloroform solvent, are shown in Table 3-1. [drawing 26] [drawing 27] [drawing 28] [drawing 29]

[2] = Light transmittance of optical filter (dye-containing acrylic adhesive sheet, 1000 ppm dye); settings: dye 1000 (wt)ppm in acrylic adhesive, 25 μm
Experimental: When the compound (3-A) was dispersed and dissolved in a solvent of ethyl acetate and toluene (weight ratio 50:50) and dried, a dye-containing diluting agent for an acrylic adhesive was prepared such that the dye concentration in the resin was 1000 (wt)ppm. Subsequently, the acrylic adhesive (a copolymer of butyl acrylate and acrylic acid (Product name: DBBOND, manufactured by Diabond Industry Co., Ltd.)) and a dye-containing diluting agent were mixed (weight ratio 80:20), and continuously applied on a mold releasing layer of a mold releasing film comprising a polyethylene terephthalate film and a silicone mold releasing layer according to a bar coating method, and the resulting material was dried. Then, the other mold releasing film was attached to the coating surface to prepare a dye-containing adhesive sheet having a thickness of 25 μm with mold releasing films having different mold releasing forces at both sides.
The mold releasing film on one side of the prepared adhesive sheet was peeled away and the resulting sheet was attached to a transparent acrylic resin (manufactured by Mitsubishi Rayon Co., Ltd., Acrylite, thickness: 2 mm), while the mold releasing film on the other side thereof was further peeled away and an ultraviolet blocking film (manufactured by Teijin Co., Ltd., HB Film, thickness: 75 μm) was attached to prepare an optical filter.
With respect to the obtained optical filter, the light transmittance in a wavelength of from 300 to 800 nm was measured by using a spectrophotometer (Product name: U-3400, manufactured by Hitachi, Ltd.) in accordance with JIS R3106. A percentage of light transmittance at a wavelength of 550 nm to light transmittance at a wavelength of 525 nm was obtained.

[3] = High temperature test of optical filter; settings: 80° C.
Experimental: A dye-containing diluting agent was prepared such that the dye concentration in the resin was 1000 (wt)ppm when the dye was dispersed and dissolved in a solvent and dried. Subsequently, an acrylic adhesive (a copolymer of butyl acrylate and acrylic acid (Product name: DBBOND, manufactured by Diabond Industry Co., Ltd.) and the dye-containing diluting agent are mixed (weight ratio 80:20), and continuously applied on a mold releasing layer of a mold releasing film comprising a polyethylene terephthalate film and a silicone mold releasing layer according to the bar coating method, and the resulting material was dried. Due to this, an acrylic adhesive containing the dye having a film thickness of 25 μm was prepared. The prepared adhesive was attached to a transparent acrylic resin (manufactured by Mitsubishi Rayon Co., Ltd., Acrylite, thickness: 2 mm), and the mold releasing film of the adhesive was peeled away and an ultraviolet blocking film (manufactured by Teijin Co., Ltd., HB Film, thickness: 75 μm) was attached to give the sample for evaluation. […]
The above optical filters were kept under each environmental condition for 500 hours and 1000 hours, and light transmittance of the optical filter was measured by using the spectrophotometer after 500 hours and 1000 hours. […]

Solubility in acetone = assay: Solubility in acetone; set-up: key: ∘: completely dissolved; x: not completely dissolved; settings: for Solubility 0.1%: 0.1 weight % based on acetone; for Solubility 0.2%: 0.2 weight % based on acetone; for Solubility 1.0%: 1.0 weight % based on acetone
Experimental: as §1, §2

[4] = Light resistance test / artificial sunlight irradiation test of optical filter; settings: visible light 380 to 780 nm
Experimental: To evaluate light resistance of the dye, a sample prepared in the same method as in evaluation of heat resistance is used. The absorption retention rate represented by the above equation (1) is measured in the same manner as in heat resistance. However, in this case, the obtained sample is not kept under the environment of 80° C., but the above visible light ray is irradiated on a side of the ultraviolet blocking film of the sample in a room at a temperature of 30±10° C., a humidity of 50±20% for a predetermined time. Tmax,1 represents light transmittance in a maximum absorption wavelength after the above visible light ray is irradiated for a predetermined time. When there are a plurality of absorption maxima, Tmax,0 is light transmittance at a maximum absorption wavelength showing the highest absorption coefficient. Tmax,1 represents light transmittance at the same wavelength as that in Tmax,0 or at a maximum absorption wavelength nearest to the wavelength in Tmax,0.
With respect to the optical filters obtained from the compounds (3-A) to (3-F), environmental accelerated tests were carried out by artificial sunlight irradiation using a solar simulator (manufactured by Ushio Inc.). A visible light ray in a wavelength of from 380 to 780 nm was irradiated on the ultraviolet blocking film of the prepared optical filter at 50 mW/cm^2 for 250 hours in a room at a temperature of 30±10° C. and a humidity of 50±20%. At this time, an absorption retention rate represented by the above equation (1) was obtained.
(§3) With respect to the optical filters obtained from the compounds (3-A) and (3-B), environmental accelerated tests of high temperature, high-temperature/high-humidity and artificial sunlight irradiation were carried out. In the test, a constant temperature chamber at 80° C. (DN-61, manufactured by Yamato Scientific Co., Ltd.), a constant temperature and humidity chamber at 60° C. and 90% RH (Product name, FX2200, manufactured by Kusumoto Chemicals, Ltd.) and a solar simulator (manufactured by Ushio Inc.) were respectively used. A visible light ray in a wavelength of from 380 to 780 nm was irradiated on a surface of the ultraviolet blocking film of the above optical filter at 50 mW/cm^2 for a predetermined time in a room at a temperature of 30±10° C. and a humidity of 50±20%.
(§4) The above optical filters were kept under each environmental condition for 500 hours and 1000 hours, and light transmittance of the optical filter was measured by using the spectrophotometer after 500 hours and 1000 hours. An absorption retention rate in a maximum absorption wavelength after each environmental accelerated test was obtained from the above equation (2).

[5] = High temperature/high humidity test of optical filter; settings: 60° C. and 90% RH
Experimental: as §3, §4

[6] = Light transmittance of spin-coated optical filter (acrylic adhesive on glass plate); settings: 0.1 weight % dye diluting agent mixed with acrylic adhesive, dry film 5 μm
Experimental: (§5) A compound represented by the compound No. 1-4 (Table 1-1) was dissolved in a mixed solvent of acetone and toluene (weight ratio 50:50) such that the concentration was 0.1 weight % to give a dye-containing diluting agent. An acrylic adhesive and the dye-containing diluting agent (weight ratio 50:70) were mixed and applied by spin coating at 800 rpm for 30 seconds onto a glass plate, and the resulting material was dried to prepare an optical filter. The dry film thickness of the coating layer was 5 μm. In the above filter, light transmittance was measured by using a spectrophotometer (UV-3100, manufactured by Shimadzu Corporation). Light transmittance in a wavelength of 550 nm was 47.2%.
as §5, with “2-12” for “1-4”, “2-2) synthesized in the same manner as in Examples 2-1 and 2-2” for “1-1)”, “plate” for “plate,”, “Light transmittance in a wavelength of 550 nm was 47.2%.” left out

SMILES | εg (gram absorption coefficient) [1] | λmax [1] | Maximum Absorption Wavelength ([1]; chloroform solvent) | Ratio of Absorption Coefficient at 525 nm and 550 nm ([1]; chloroform solvent, coefficient at 550 nm to coefficient at 525 nm) | Light Transmittance at 525 nm [2] | Light Transmittance at 550 nm [2] | T@550/T@525 Light Transmittance Ratio [2] | Absorption retention rate, High temperature test, after 500 hours ([3]; 500 hours) | Absorption retention rate, High temperature test, After 1000 hours ([3]; 1000 hours) | Solubility 0.1% (Solubility in acetone) | Solubility 0.2% (Solubility in acetone) | Solubility 1.0% (Solubility in acetone) | Absorption Retention after Light resistance test for 250 hours ([4]; 50 mW/cm^2, 250 hours, 30±10° C., humidity 50±20%) | Absorption retention rate, Artificial sunlight irradiation test, after 500 hours ([4]; 50 mW/cm^2, 500 hours) | Absorption retention rate, Artificial sunlight irradiation test, After 1000 hours ([4]; 50 mW/cm^2, 1000 hours) | Absorption retention rate, High temperature/High humidity test, after 500 hours ([5]; 500 hours) | Absorption retention rate, High temperature/High humidity test, After 1000 hours ([5]; 1000 hours) | Light transmittance in a wavelength of 550 nm [6]
CCCCCOc1ccc(C2=c3nc(c4c5cccc6cccc(c3=4)c65)C(c3ccc(OCCCCC)cc3)=c3c4c(c5[n]3[Cu][n]3c2c2c(c3C(c3ccc(OCCCCC)cc3)=c3nc(c6c7cccc8cccc(c3=6)c87)C=5c3ccc(OCCCCC)cc3)-c3cccc5cccc-2c35)-c2cccc3cccc-4c23)cc1 [1-2] | 154,000 | 553 nm | 553 nm | 2.5 | 62.6% | 37.2% | 59% | 100% | 100% | ∘ | ∘ | ∘ | 95% | 95% | 93% | 91% | 90% | –
CCCCCCCCCCOc1ccc(C2=c3nc(c4c5cccc6cccc(c3=4)c65)C(c3ccc(OCCCCCCCCCC)cc3)=c3c4c(c5[n]3[Cu][n]3c2c2c(c3C(c3ccc(OCCCCCCCCCC)cc3)=c3nc(c6c7cccc8cccc(c3=6)c87)C=5c3ccc(OCCCCCCCCCC)cc3)-c3cccc5cccc-2c35)-c2cccc3cccc-4c23)cc1 [1-4] | 115,000 | 552 nm | – | – | – | – | – | – | – | ∘ | ∘ | ∘ | – | – | – | – | – | 47.2%
